From patent US20230234928A1, “Novel Compounds for Treating Fibrosis and Inflammatory Conditions” (MAKScientific, LLC, priority 2020, published 2023)
“And” between values parts separate entries of the source, which are not always exact repeats. Identical values can stand only once.

Experiments:
C57BL/6 mice = assay: diabetic (STZ) high-fat diet mouse NASH model; assay type: in vivo; conditions: 10 mg/kg PO daily; for fibrosis scores: vs control group
Experimental: Timed pregnant female C57BL/6 mice (Jackson Laboratories, USA) were obtained and housed with a cardboard hut for birthing and nursing of pups (enrichment), in an AAALAC-accredited vivarium, prefilled with corn cob bedding on a 12-hour light-dark at 68-74° F. and 30-70% humidity. Pregnant female mice were fed water and a standard rodent diet (Teklad irradiated 2918) ad libitum consisting of 18% protein, 5% fat, and 5% fiber. Three days post birth, pups from all litters received streptozotocin (STZ), i.p. at 200 mg/kg, to induce a mild to moderate hyperglycemia and insulin insufficiency. Random blood glucose was measured at weaning when pups were 25 days old. At weaning, mice were fed water and a standard rodent diet (Teklad irradiated 2918) ad libitum consisting of 18% protein, 5% fat, and 5% fiber. At 4 weeks of age, male mice were randomized into 7 study groups based on a random blood glucose (RBG) between 200-750 mg/dl and were switched from the standard rodent diet to the modified high fat diet (HFD), Research Diets D09100310 for the remainder of the study. Following 3 weeks of HFD feeding, test article and vehicle control dose administration was initiated and continued for up to 9 weeks. Body weights were measured at least twice a week from dose initiation through study end/termination. HFD was changed weekly with the old food being discarded. Animals had random blood glucose measured every 3 weeks and at termination. Clinical observations were performed daily from receipt/birth and continued through study end. Compound 1 and rimonabant were stored at −20° C. prior to drug preparation. Following three weeks of modified diet feeding, dose initiation of the compounds began and continued for up to 9 weeks. Test compounds were dissolved in 2% dimethyl sulfoxide, followed by 8% Tween-80 and 8% propylene glycol. Saline was added slowly to this solution with sonication prior to administration. Animals were dosed at 10 mg/kg via oral gavage (PO), daily, for up to 9 weeks.
Livers were scored for both NAS and NASH parameters. […] Fibrosis was observed across all study groups. […] Lobular inflammation was present across all NASH study groups thus indicating inflammatory cell infiltration. Following 9 weeks of treatment with Compound 1, lobular inflammation was reduced.

CB1 = biological target: T1, CB1 (Mus musculus, UniProt P47746); assay: in vivo CB1 antagonism (hypothermia) in male CD1 mice; conditions: 10 mg/kg i.p. test compound, 30 mg/kg Δ9-THC, male CD-1 mice, rectal temperature
T1 construct: tissue Charles River; host or cells: whole animal, male CD-1 mice
Experimental: Male CD-1 mice (Charles River, Wilmington, Mass., USA) aged 4-6 weeks weighing between 25-35 gm were chosen for in vivo CB1 antagonism testing. The mice were housed 4 per cage with free access to food and water. The temperature of the vivarium was 25° C. with a non-reversed 12 hrs light/dark cycle (lights on 7 am). Mice were habituated to the vivarium for at least one week before any experiments were performed. All experimental procedures were pre-approved by The Animal Care and Use Committee of Northeastern University, Boston, Mass., USA. The “Principles of Animal Laboratory Care” (National Institute of Health 1996) was followed. The test compound (10 mg/kg) was dissolved in 4% dimethyl sulfoxide, followed by 8% Tween-80 and 8% propylene glycol. Saline was added slowly to this solution with sonication prior to administration. Δ^9-THC was initially dissolved in 2% dimethyl sulfoxide, followed by 4% Tween-80 and 4% propylene glycol. Saline was added slowly to this drug solution with sonication prior to administration. All administrations were i.p. at a volume of 10 ml/kg. […] Core temperature was measured using a rectal probe of a digital laboratory thermometer, RET-3-ISO, type T thermocouple (Physitemp Instruments Inc., Clifton, N.J.). The probe was inserted 2 cm into the rectum for ≈20 to 30 seconds at which time the rectal temperature readings had stabilized.

CB2 cannabinoid receptor = CB2 cannabinoid receptor (UniProt P34972); assay: CB2 competition-equilibrium binding using [3H]CP-55,940; conditions: competition binding with [3H]CP-55,940; read-out: CB2 cannabinoid receptor binding affinity (Ki)
Experimental: (§1) HEK293 cells expressing hCB1, hCB2 or mCB2 receptor are used for membrane preparations according to the method described in J Neurochem 1999, 72, (5), 2032-8, herein incorporated by reference in its entirety. The resulting pellet is resuspended in 10 mM Tris-chloride, pH 7.4 with 5 mM MgCl2 and 2 mM EDTA (TME), and stored at −80° C. for no longer than two months. Protein content is assayed by using the Bio-Rad DC protein assay according to the manufacturer's protocol.
(§2) The compound was tested for its ability to bind to CB1 and CB2 receptors using rat brain or HEK293 cell membranes expressing hCB2 and mCB2 membrane preparations, respectively, as described in J Med Chem 1999, 42, (4), 769-776, J Med Chem 1994, 37, (23), 3867-70 and Life Sci 1995, 56, (23-24), 1957-62 (each herein incorporated by reference in its entirety) via competition-equilibrium binding using [^3H]CP-55,940. The results were analyzed using nonlinear regression to determine the actual IC50 of the ligand (Prizm by GraphPad Software, Inc.) and the Ki values are calculated from the IC50 as described in Biochemical Pharmacology 1973, 22, (23), 3099-3108; herein incorporated by reference in its entirety.

CB1 cannabinoid receptor = biological target: T2, CB1 cannabinoid receptor (Homo sapiens, UniProt P21554); assay: CB1 competition-equilibrium binding using [3H]CP-55,940; conditions: competition binding with [3H]CP-55,940; FIG. 1: hCB1-HEK292 cells; read-out: CB1 cannabinoid receptor binding affinity (Ki)
T2 construct: expressed in transfected cells; host or cells: HEK293
Experimental: as §1
Frozen rat brains (CB1 source) are obtained from Pel-Freeze Biologicals (Rogers, Ak.) and stored at −80° C. until use. […]
as §2

T2 sequence (P21554 whole entry): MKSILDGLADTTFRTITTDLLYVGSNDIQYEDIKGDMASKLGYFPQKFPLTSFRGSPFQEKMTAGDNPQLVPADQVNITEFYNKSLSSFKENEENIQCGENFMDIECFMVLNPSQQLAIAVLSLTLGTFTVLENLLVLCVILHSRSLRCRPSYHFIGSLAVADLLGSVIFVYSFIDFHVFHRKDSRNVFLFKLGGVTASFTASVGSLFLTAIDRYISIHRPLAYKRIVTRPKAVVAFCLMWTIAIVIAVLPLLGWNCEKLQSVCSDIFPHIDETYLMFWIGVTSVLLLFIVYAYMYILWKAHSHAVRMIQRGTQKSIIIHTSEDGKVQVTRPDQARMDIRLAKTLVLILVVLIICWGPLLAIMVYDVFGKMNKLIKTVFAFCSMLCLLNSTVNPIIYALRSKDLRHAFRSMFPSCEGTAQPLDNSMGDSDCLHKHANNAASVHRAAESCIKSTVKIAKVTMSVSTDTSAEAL
T1 sequence (P47746 whole entry): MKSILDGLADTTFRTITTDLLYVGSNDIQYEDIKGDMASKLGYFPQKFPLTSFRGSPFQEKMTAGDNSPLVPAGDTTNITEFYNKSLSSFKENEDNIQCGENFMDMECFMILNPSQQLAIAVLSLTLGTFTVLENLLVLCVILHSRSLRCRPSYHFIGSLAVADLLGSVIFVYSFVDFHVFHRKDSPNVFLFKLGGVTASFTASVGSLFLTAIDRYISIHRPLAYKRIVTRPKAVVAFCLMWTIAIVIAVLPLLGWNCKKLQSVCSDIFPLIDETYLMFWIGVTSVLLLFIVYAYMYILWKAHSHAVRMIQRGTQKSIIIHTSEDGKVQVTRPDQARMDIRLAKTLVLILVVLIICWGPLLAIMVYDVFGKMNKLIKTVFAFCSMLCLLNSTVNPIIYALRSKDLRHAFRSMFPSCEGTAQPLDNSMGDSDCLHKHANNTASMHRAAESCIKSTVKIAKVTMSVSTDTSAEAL

| SMILES | steatosis (C57BL/6 mice; 9 weeks of treatment, liver) | fibrosis scores (C57BL/6 mice; 9 weeks of treatment, liver) | antagonism of hypothermic effects induced by the CB1 agonist Δ9-THC (CB1) | lobular inflammation (C57BL/6 mice; 9 weeks of treatment, liver) | inflammation and fibrosis (overall) (C57BL/6 mice; up to 9 weeks) | animal survival (C57BL/6 mice; up to 9 weeks, compared to rimonabant) | Ki (CB2 cannabinoid receptor) [nM] | Ki (CB1 cannabinoid receptor) |
| --- | --- | --- | --- | --- | --- | --- | --- | --- |
| Cc1c(C(=O)NN2CCCCC2)nn(-c2ccc(Cl)cc2Cl)c1-c1ccc(Cl)cc1 [rimonabant, 5-(4-chlorophenyl)-1-(2,4-dichlorophenyl)-4-methyl-N-(piperidin-1-yl)-1H-pyrazole-3-carboxamide, reference compound] | decreased | statistically significant when compared to the control group | – | – | – | – | – | – |
| Cc1c(C(=O)NN2CCS(=O)(=O)CC2)nc(-c2ccc(Cl)cc2Cl)n1-c1ccc(C#CCCC#N)cc1 [Compound 1, 1-(4-(4-cyanobut-1-yn-1-yl)phenyl)-2-(2,4-dichlorophenyl)-N-(1,1-dioxidothiomorpholino)-5-methyl-1H-imidazole-4-carboxamide] | decreased | statistically significant when compared to the control group | inability of 10 mg/kg of compound 1 to antagonize the hypothermic effects | reduced | markedly attenuated or delayed the inflammation and fibrosis | increased animal survival as compared to rimonabant | > 1000 | 1 nM and ~1 nM |
